Test results: patent publication US11198761B2, “Biodegradable polyionenes” (AGENCY FOR SCIENCE, TECHNOLOGY AND RESEARCH, priority 2017, dated 2021)

Assays:
[1] = system: P. aeruginosa (ATCC No. 9027); assay: MIC, broth microdilution; type: cell-based, Pseudomonas aeruginosa; conditions: Gemini-surfactant series S; 18 hours, 37° C.
Method: (§1) Bacterial and fungal samples were inoculated according to ATCC's requirement. Briefly, bacteria and fungi were grown in Mueller Hinton Broth (MHB) at 37° C. and room temperature, respectively overnight to allow the microbes to enter the log growth phase with constant 100 rpm shaking. Minimum inhibitory concentration (MIC) of the polymers was determined using the broth microdilution method. 100 μL of 20% v/v water-containing broth with various polymer or Gemini-surfactant concentrations was first added into each well of a 96-well tissue culture plate. The inoculated overnight microbe solution was first diluted to an optical density (O.D.) reading of 0.07 using a microplate reader (TECAN, Switzerland). This will correspond to 3×10^8 CFU/mL based on the McFarland 1 standard solution (CFU=colony forming units). The microbe solution was further diluted 1000 times to achieve a final 3×10^5 CFU/mL. To each well, an equal volume of diluted microbes solution was added and incubated at 37° C. for 18 hours for bacteria samples and at room temperature for 42 hours for fungi samples. There were 6 replicates for each concentration tested, with negative control being microbes added into broth containing 20% v/v deionized water. MIC was taken as the lowest concentration at which there was no observable microbe growth when measured by the microplate reader.

E. coli (ATCC No. 25922) = assay: MIC, broth microdilution; type: cell-based, Escherichia coli; conditions: Gemini-surfactant series S; 18 hours, 37° C.
Method: as §1

[2] = system: C. albicans (ATCC No 10231); assay: MIC, broth microdilution; type: cell-based, Candida albicans; conditions: Gemini-surfactant series S; 42 hours, room temperature
Method: as §1

[3] = system: S. aureus (ATCC No. 6538); assay: MIC, broth microdilution; type: cell-based, Staphylococcus aureus; conditions: Gemini-surfactant series S; 18 hours, 37° C.
Method: as §1

[4] = system: rat red blood cells (rRBCs); assay: Hemolysis assay; type: cell-based; conditions: Gemini-surfactant series S; 1 hour, 37° C.
Method: Freshly obtained rat red blood cells (rRBC) from the Animal Handling Unit of Biomedical Research Center (Singapore) was used to test the hemolytic activity of the polymers and Gemini-surfactants. The rRBC was diluted to 4% v/v with phosphate-buffered saline (PBS) and added to an equal volume of 0.2% v/v Triton-X solution. A microplate reader was used to measure the optical density (O.D.) reading to make sure the value is between 0.5 and 0.6. An equal volume of different polymer or Gemini-surfactant concentrations was added to the diluted blood and incubated for 1 hour at 37° C. The samples were centrifuged at 1000 g at 4° C. for 5 minutes and 100 μL of the supernatant was collected and transferred to a 96-well tissue culture plate. There were 4 replicates for each concentration. Haemoglobin release was measured using the microplate reader at 576 nm. rRBCs treated with PBS were used as the […] control, while those treated with 0.2% v/v Triton-X was used as the […] control.
Percentage of hemolysis was calculated as follows: Hemolysis (%)═[(O.D.576 nm of the treated sample−O.D.576 nm of negative control)/(O.D.576 nm of positive control−O.D.576 nm of negative control)]×100%
HC50 was taken as the polymer concentration at which the polymer causes 50% hemolysis.

Compound	MIC PA [1]	MIC EC (E. coli (ATCC No. 25922))	MIC CA [2]	MIC SA [3]	Hemolysis, HC50 [4]
CCCCCCCCCCCC[N+](C)(C)Cc1ccc(C(=O)NCCCOCCOCCOCCCNC(=O)c2ccc(C[N+](C)(C)CCCCCCCCCCCC)cc2)cc1.[Cl-].[Cl-] [S-6h]	8 ppm	2 ppm	4 ppm	1 ppm	31-63 ppm
CCCCCCCCCCCC[N+](C)(C)Cc1ccc(C(=O)NCc2cccc(CNC(=O)c3ccc(C[N+](C)(C)CCCCCCCCCCCC)cc3)c2)cc1.[Cl-].[Cl-] [S-4h]	31 ppm	8 ppm	2 ppm	8 ppm	63-125 ppm
CCCCCCCC[N+](C)(C)Cc1ccc(C(=O)NCCCCCCNC(=O)c2ccc(C[N+](C)(C)CCCCCCCC)cc2)cc1.[Cl-].[Cl-] [S-3f]	500 ppm	16 ppm	8 ppm	4 ppm	500-1000 ppm
CCCCCCCCCC[N+](C)(C)Cc1ccc(C(=O)NCCCCCCOC(=O)c2ccc(C[N+](C)(C)CCCCCCCCCC)cc2)cc1.[Cl-].[Cl-] [S-13g]	4 ppm	1 ppm	1 ppm	1 ppm	63-125 ppm
CCCCCCCC[N+](C)(C)Cc1ccc(C(=O)NCc2cccc(CNC(=O)c3ccc(C[N+](C)(C)CCCCCCCC)cc3)c2)cc1.[Cl-].[Cl-] [S-4f]	250 ppm	8 ppm	125 ppm	2 ppm	250-500 ppm
C=CC[N+](C)(C)Cc1ccc(C(=O)NCCOCCOCCNC(=O)c2ccc(C[N+](C)(C)CC=C)cc2)cc1.[Cl-].[Cl-] [S-5a]	>500 ppm	>500 ppm	>500 ppm	>500 ppm	>2000 ppm
C[N+](C)(Cc1ccccc1)Cc1ccc(C(=O)NCCOCCOCCNC(=O)c2ccc(C[N+](C)(C)Cc3ccccc3)cc2)cc1.[Cl-].[Cl-] [S-5d]	>500 ppm	>500 ppm	>500 ppm	>500 ppm	>2000 ppm
CCCCCCCCCC[N+](C)(C)Cc1ccc(C(=O)NCCOCCOCCNC(=O)c2ccc(C[N+](C)(C)CCCCCCCCCC)cc2)cc1.[Cl-].[Cl-] [S-5g]	63 ppm	4 ppm	2 ppm	2 ppm	125-250 ppm
CCCC[N+](C)(C)Cc1ccc(C(=O)NCCOCCOCCNC(=O)c2ccc(C[N+](C)(C)CCCC)cc2)cc1.[Cl-].[Cl-] [S-5e]	>500 ppm	>500 ppm	>500 ppm	>500 ppm	>2000 ppm
CCCCCCCCCC[N+](C)(C)Cc1ccc(C(=O)OCCCCCCOC(=O)c2ccc(C[N+](C)(C)CCCCCCCCCC)cc2)cc1.[Cl-].[Cl-] [S-9g]	8 ppm	2 ppm	1 ppm	1 ppm	125-250 ppm
C=C(C)C(=O)OCC[N+](C)(C)Cc1ccc(C(=O)NCCOCCOCCNC(=O)c2ccc(C[N+](C)(C)CCOC(=O)C(=C)C)cc2)cc1.[Cl-].[Cl-] [S-5b]	>500 ppm	>500 ppm	>500 ppm	>500 ppm	>2000 ppm
CCCCCCCCCCCC[N+](C)(C)Cc1ccc(C(=O)NCCNC(=O)c2ccc(C[N+](C)(C)CCCCCCCCCCCC)cc2)cc1.[Cl-].[Cl-] [S-1h]	31 ppm	8 ppm	2 ppm	16 ppm	125-250 ppm
CCCCCCCC[N+](C)(C)Cc1ccc(C(=O)NCCOCCOCCNC(=O)c2ccc(C[N+](C)(C)CCCCCCCC)cc2)cc1.[Cl-].[Cl-] [S-5f]	>500 ppm	250 ppm	125 ppm	31 ppm	>2000 ppm
CCCCCCCCCC[N+](C)(C)Cc1ccc(C(=O)OCCCOC(=O)c2ccc(C[N+](C)(C)CCCCCCCCCC)cc2)cc1.[Cl-].[Cl-] [S-7g]	8 ppm	1 ppm	1 ppm	1 ppm	63-125 ppm
CCCCCCCCCCCC[N+](C)(C)Cc1ccc(C(=O)NCCOCCOCCNC(=O)c2ccc(C[N+](C)(C)CCCCCCCCCCCC)cc2)cc1.[Cl-].[Cl-] [S-5h]	16 ppm	4 ppm	1 ppm	2 ppm	16-31 ppm
CCCCCCCC[N+](C)(C)Cc1ccc(C(=O)NCCCOCCOCCOCCCNC(=O)c2ccc(C[N+](C)(C)CCCCCCCC)cc2)cc1.[Cl-].[Cl-] [S-6f]	>500 ppm	125 ppm	16 ppm	16 ppm	>2000 ppm
CCCCCCCCCC[N+](C)(C)Cc1ccc(C(=O)NCc2cccc(CNC(=O)c3ccc(C[N+](C)(C)CCCCCCCCCC)cc3)c2)cc1.[Cl-].[Cl-] [S-4g]	8 ppm	1 ppm	1 ppm	1 ppm	63-125 ppm
CCCCCCCCCCCC[N+](C)(C)Cc1ccc(C(=O)NCCCCCCNC(=O)c2ccc(C[N+](C)(C)CCCCCCCCCCCC)cc2)cc1.[Cl-].[Cl-] [S-3h]	16 ppm	16 ppm	2 ppm	4 ppm	125-250 ppm
CCCCCCCCCC[N+](C)(C)Cc1ccc(C(=O)OCc2ccc(COC(=O)c3ccc(C[N+](C)(C)CCCCCCCCCC)cc3)cc2)cc1.[Cl-].[Cl-] [S-12g]	8 ppm	2 ppm	2 ppm	1 ppm	125-250 ppm
CCCCCCCCCC[N+](C)(C)Cc1ccc(C(=O)NCCCOCCOCCOCCCNC(=O)c2ccc(C[N+](C)(C)CCCCCCCCCC)cc2)cc1.[Cl-].[Cl-] [S-6g]	63 ppm	4 ppm	4 ppm	2 ppm	250-500 ppm
CCCCCCCCCCCC[N+](C)(C)Cc1ccc(C(=O)NCCNC(=O)c2ccc(C[N+](C)(C)CCCCCCCCCCCC)cc2)cc1.[Cl-].[Cl-] [S-1g]	16 ppm	2 ppm	2 ppm	1 ppm	125-250 ppm
